The results in this text go back to PubChem BioAssay AID248 (DTP/NCI, 2004).

SMILES strings stand for the structures. Toxic doses and inconclusive results are not listed.

The test concerns L1210 leukemia ip in BDF1 mice, survival T/C. Description: NCI In Vivo Anticancer Drug Screen. Data for tumor model L1210 Leukemia (intraperitoneal) in B6D2F1 (BDF1) mice. As to conditions: endpoint: mean survival time, higher = longer survival. The gist of the method: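 Transplantable tumor model; survival measured in treated vs vehicle control mice. Value = treated/control.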

The mark [1] stands for this setting: dose: 100.0 mg/kg/injection, schedule: Q01DX001 (ip), vehicle: saline.
[2] abbreviates: dose: 200.0 mg/kg/injection, schedule: Q01DX001 (ip), vehicle: saline.
[3] abbreviates: dose: 400.0 mg/kg/injection, schedule: Q01DX001 (ip), vehicle: saline.
[4] abbreviates: dose: 100.0 mg/kg/injection, schedule: Q01DX009 (ip), vehicle: Klucel (hydroxypropylcellulose) (HPC).
Setting [5] is: dose: 100.0 mg/kg/injection, schedule: Q04DX003 (ip), vehicle: Klucel (hydroxypropylcellulose) (HPC).
The mark [6] stands for this setting: dose: 200.0 mg/kg/injection, schedule: Q04DX003 (ip), vehicle: Klucel (hydroxypropylcellulose) (HPC).
Setting [7] is: dose: 400.0 mg/kg/injection, schedule: Q04DX003 (ip), vehicle: Klucel (hydroxypropylcellulose) (HPC).
Where [8] appears, read: dose: 100.0 mg/kg/injection, schedule: Q01DX009 (ip), vehicle: saline.
Where [9] appears, read: dose: 200.0 mg/kg/injection, schedule: Q01DX009 (ip), vehicle: saline.
Setting [10] is: dose: 50.0 mg/kg/injection, schedule: Q01DX001 (ip), vehicle: saline.
[11] abbreviates: dose: 100.0 mg/kg/injection, schedule: Q04DX003 (ip), vehicle: saline.
The mark [12] stands for this setting: dose: 200.0 mg/kg/injection, schedule: Q04DX003 (ip), vehicle: saline.
Where [13] appears, read: dose: 400.0 mg/kg/injection, schedule: Q04DX003 (ip), vehicle: saline.

In the case of `CN(C)c1ccc(/C=C/C=C2\c3ccccc3-c3ccc([N+](=O)[O-])cc32)cc1`, the T/C is 93 % of control (dose: 100.0 mg/kg/injection, schedule: Q04DX003 (ip), vehicle: saline with Tween-80); 102 % of control (dose: 200.0 mg/kg/injection, schedule: Q04DX003 (ip), vehicle: saline with Tween-80); 94 % of control (dose: 400.0 mg/kg/injection, schedule: Q04DX003 (ip), vehicle: saline with Tween-80).
In the case of `CC(C)(C)OC(=O)CCN1CC1`, the T/C was 109 % of control (dose: 75.0 mg/kg/injection, schedule: Q01DX001 (ip), vehicle: saline) and 104 % of control (dose: 150.0 mg/kg/injection, schedule: Q01DX001 (ip), vehicle: saline).
With `O=C(OC12CCCCC(CCCC1)O2)c1ccc([N+](=O)[O-])cc1`, the T/C was 91 % of control under setting [1], 93 % of control under setting [2] and 98 % of control under setting [3].
For `O=[N+]([O-])c1ccc(OCCCOc2ccccc2)cc1`, the T/C is 112 % of control under setting [4]; 97 % of control under setting [5]; 101 % of control (dose: 200.0 mg/kg/injection, schedule: Q01DX009 (ip), vehicle: Klucel (hydroxypropylcellulose) (HPC)); 103 % of control under setting [6]; 98 % of control (dose: 400.0 mg/kg/injection, schedule: Q01DX009 (ip), vehicle: Klucel (hydroxypropylcellulose) (HPC)); 100 % of control under setting [7].
`O=c1oc(-c2ccccc2)n[n+]([O-])c1-c1ccccc1`: the T/C (dose: 50.0 mg/kg/injection, schedule: Q01DX009 (ip), vehicle: Klucel (hydroxypropylcellulose) (HPC)) is 98 % of control and the T/C under setting [4] is 98 % of control.
On to `Clc1ccnc(SCc2ccccc2)n1`, for which the T/C was 91 % of control (dose: 100.0 mg/kg/injection, schedule: Q01DX Z (ip), vehicle: methylcellulose (MC)) and 104 % of control (dose: 200.0 mg/kg/injection, schedule: Q01DX Z (ip), vehicle: methylcellulose (MC)).
Turning to `COC(=O)Cn1nnc2ccccc21`, the T/C is 97 % of control (dose: 50.0 mg/kg/injection, schedule: Q01DX009 (ip), vehicle: saline); 105 % of control under setting [8]; 87 % of control under setting [9].
Take `CCOC(=O)c1cnc(C)nc1NCc1ccco1`: the T/C under setting [5] was 103 % of control, the T/C under setting [6] was 95 % of control and the T/C under setting [7] is 98 % of control.
For the molecule `CC1(O)CC(=O)C2C3C=CC(C3)C21` (stereo unspecified), the T/C reads like this: (dose: 75.0 mg/kg/injection, schedule: Q01DX001 (ip), vehicle: other) 98 % of control; (dose: 150.0 mg/kg/injection, schedule: Q01DX001 (ip), vehicle: other) 104 % of control.
`CCC(C)(C(=O)O)C(=O)O`: the T/C under setting [1] was 103 % of control.
Turning to `Clc1ccc2nccnc2c1`, the T/C reads like this: under setting [5], 97 % of control; under setting [6], 107 % of control.
Turning to `CC(C)C(Br)C(Br)c1ccccc1` (stereo unspecified), the T/C was 96 % of control (dose: 50.0 mg/kg/injection, schedule: Q01DX009 (ip), vehicle: saline with Tween-80); 102 % of control (dose: 100.0 mg/kg/injection, schedule: Q01DX009 (ip), vehicle: saline with Tween-80); 96 % of control (dose: 200.0 mg/kg/injection, schedule: Q01DX009 (ip), vehicle: saline with Tween-80).
For `OCC1OC(n2cnc3c(SCc4ccccc4)ncnc32)C(O)C1O` (stereo unspecified), the T/C is 102 % of control (dose: 38.5 mg/kg/injection, schedule: Q01DX009 (ip), vehicle: saline); 111 % of control (dose: 58.0 mg/kg/injection, schedule: Q01DX009 (ip), vehicle: carboxymethylcellulose (CMC)); 124 % of control (dose: 58.0 mg/kg/injection, schedule: Q01DX009 (ip), vehicle: saline); 124 % of control (dose: 88.0 mg/kg/injection, schedule: Q01DX009 (ip), vehicle: carboxymethylcellulose (CMC)); 152 % of control (dose: 88.0 mg/kg/injection, schedule: Q01DX009 (ip), vehicle: saline); 113 % of control (dose: 132.0 mg/kg/injection, schedule: Q01DX009 (ip), vehicle: carboxymethylcellulose (CMC)). For the same molecule, the T/C was 152 % of control (dose: 132.0 mg/kg/injection, schedule: Q01DX009 (ip), vehicle: saline) and 105 % of control (dose: 200.0 mg/kg/injection, schedule: Q01DX009 (ip), vehicle: carboxymethylcellulose (CMC)).
`[Cl][Hg][Cl].c1ccc(N=P(c2ccccc2)(c2ccccc2)c2ccccc2)cc1`: the T/C is, setting by setting: (dose: 9.38 mg/kg/injection, schedule: Q01DX001 (ip), vehicle: other) 96 % of control; (dose: 18.75 mg/kg/injection, schedule: Q01DX001 (ip), vehicle: other) 102 % of control.
Turning to `COc1cc2c(c(O)c1OC)c(=O)c1ccccc1n2C`, the T/C reads like this: (dose: 60.0 mg/kg/injection, schedule: Q01DX Z (ip), vehicle: carboxymethylcellulose (CMC)) 103 % of control; (dose: 120.0 mg/kg/injection, schedule: Q01DX Z (ip), vehicle: carboxymethylcellulose (CMC)) 102 % of control; (dose: 240.0 mg/kg/injection, schedule: Q01DX Z (ip), vehicle: carboxymethylcellulose (CMC)) 97 % of control.
As for `CC(NN)c1ccccc1` (stereo unspecified), the T/C was 101 % of control under setting [10] and 105 % of control under setting [1].
Turning to `COc1ncnc2c1nnn2C1OC(CO)C(O)C1O` (stereo unspecified), the T/C is, setting by setting: (dose: 25.0 mg/kg/injection, schedule: Q01DX001 (ip), vehicle: saline with Tween-80) 102 % of control; (dose: 100.0 mg/kg/injection, schedule: Q01DX001 (ip), vehicle: saline with Tween-80) 104 % of control.
`COC(=O)CC[N+]12CN3CN(CN(C3)C1)C2`: the T/C was 91 % of control under setting [1]; 106 % of control under setting [11]; 100 % of control under setting [2]; 106 % of control under setting [12]; 96 % of control under setting [3]; 105 % of control under setting [13].
In the case of `Cc1ccc(Nc2cc(N)nc(N)n2)cc1C`, the T/C is 97 % of control (dose: 25.0 mg/kg/injection, schedule: Q01DX Z (ip), vehicle: methylcellulose (MC)) and 114 % of control (dose: 50.0 mg/kg/injection, schedule: Q01DX Z (ip), vehicle: methylcellulose (MC)).
For `CCC/C(=N/NC(=O)c1ccccc1)c1ccccc1`, the T/C is, setting by setting: (dose: 100.0 mg/kg/injection, schedule: Q04DX002 (ip), vehicle: Klucel (hydroxypropylcellulose) (HPC)) 110 % of control; (dose: 200.0 mg/kg/injection, schedule: Q04DX002 (ip), vehicle: Klucel (hydroxypropylcellulose) (HPC)) 110 % of control; (dose: 400.0 mg/kg/injection, schedule: Q04DX002 (ip), vehicle: Klucel (hydroxypropylcellulose) (HPC)) 100 % of control.
`C1=CC2CC1CC2[P+](c1ccccc1)(c1ccccc1)c1ccccc1` (stereo unspecified): the T/C by setting is: (dose: 12.5 mg/kg/injection, schedule: Q01DX001 (ip), vehicle: saline) 117 % of control; (dose: 25.0 mg/kg/injection, schedule: Q01DX001 (ip), vehicle: saline) 98 % of control; under setting [10], 95 % of control.
For the molecule `COc1ccc(OC)c(/C=C/c2ccc3ccccc3[n+]2C)c1`, the T/C is 110 % of control (dose: 5.0 mg/kg/injection, schedule: Q04DX003 (ip), vehicle: saline with Tween-80); 111 % of control (dose: 10.0 mg/kg/injection, schedule: Q04DX003 (ip), vehicle: saline with Tween-80); 117 % of control (dose: 20.0 mg/kg/injection, schedule: Q04DX003 (ip), vehicle: saline with Tween-80).
As to `OCCCc1cc(Cl)ccc1O`, the T/C by setting is: (dose: 50.0 mg/kg/injection, schedule: Q01DX001 (ip), vehicle: carboxymethylcellulose (CMC)) 100 % of control; (dose: 100.0 mg/kg/injection, schedule: Q01DX001 (ip), vehicle: carboxymethylcellulose (CMC)) 100 % of control; (dose: 200.0 mg/kg/injection, schedule: Q01DX001 (ip), vehicle: carboxymethylcellulose (CMC)) 94 % of control; (dose: 400.0 mg/kg/injection, schedule: Q01DX001 (ip), vehicle: carboxymethylcellulose (CMC)) 92 % of control.
As for `O=C(O)CN1C(=O)C2CC=CCC2C1=O` (stereo unspecified), the T/C is, setting by setting: under setting [8], 91 % of control; under setting [11], 96 % of control; under setting [9], 96 % of control; under setting [12], 93 % of control; (dose: 400.0 mg/kg/injection, schedule: Q01DX009 (ip), vehicle: saline) 86 % of control; under setting [13], 91 % of control.
